Measurements reported in US10544143B2, “4-azaindole compounds” (BRISTOL-MYERS SQUIBB COMPANY, priority 2017, dated 2020).
pIC50: −log10 of the molar value.

Experiments:
human TLR8 = human TLR8 (Homo sapiens (Human), UniProt Q9NR97); experiment: TLR8 inhibition reporter assay (HEK-Blue SEAP); conditions: read-out: TLR8 IC50; HEK-Blue cells overexpressing human TLR8, SEAP reporter, R848 15.9 μM;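 also: SEAP driven by IFN-β minimal promoter carrying NF-κB and AP-1 sites, compounds dosed 0.05 nM to 50 µM for 22 h, inhibition scaled between agonist-plus-DMSO and reference-inhibitor wells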
human TLR9 = human TLR9 (Homo sapiens (Human), UniProt Q9NR96); experiment: TLR9 inhibition reporter assay (HEK-Blue SEAP); conditions: read-out: TLR9 IC50; HEK-Blue cells overexpressing human TLR9, SEAP reporter, ODN2006 5 nM;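 also: SEAP driven by an IFN-β minimal promoter with NF-κB and AP-1 sites, read after 22 h, compounds dosed 0.05 nM–50 µM, inhibition scaled between agonist plus DMSO and reference-inhibitor wells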
human TLR7 = human TLR7 (Homo sapiens (Human), UniProt Q9NYK1); experiment: TLR7 inhibition reporter assay (HEK-Blue SEAP); type: cell-based; conditions: HEK-Blue cells overexpressing human TLR7, SEAP reporter, gardiquimod 7.5 μM
Sequence of human TLR7 (Q9NYK1 27-1049): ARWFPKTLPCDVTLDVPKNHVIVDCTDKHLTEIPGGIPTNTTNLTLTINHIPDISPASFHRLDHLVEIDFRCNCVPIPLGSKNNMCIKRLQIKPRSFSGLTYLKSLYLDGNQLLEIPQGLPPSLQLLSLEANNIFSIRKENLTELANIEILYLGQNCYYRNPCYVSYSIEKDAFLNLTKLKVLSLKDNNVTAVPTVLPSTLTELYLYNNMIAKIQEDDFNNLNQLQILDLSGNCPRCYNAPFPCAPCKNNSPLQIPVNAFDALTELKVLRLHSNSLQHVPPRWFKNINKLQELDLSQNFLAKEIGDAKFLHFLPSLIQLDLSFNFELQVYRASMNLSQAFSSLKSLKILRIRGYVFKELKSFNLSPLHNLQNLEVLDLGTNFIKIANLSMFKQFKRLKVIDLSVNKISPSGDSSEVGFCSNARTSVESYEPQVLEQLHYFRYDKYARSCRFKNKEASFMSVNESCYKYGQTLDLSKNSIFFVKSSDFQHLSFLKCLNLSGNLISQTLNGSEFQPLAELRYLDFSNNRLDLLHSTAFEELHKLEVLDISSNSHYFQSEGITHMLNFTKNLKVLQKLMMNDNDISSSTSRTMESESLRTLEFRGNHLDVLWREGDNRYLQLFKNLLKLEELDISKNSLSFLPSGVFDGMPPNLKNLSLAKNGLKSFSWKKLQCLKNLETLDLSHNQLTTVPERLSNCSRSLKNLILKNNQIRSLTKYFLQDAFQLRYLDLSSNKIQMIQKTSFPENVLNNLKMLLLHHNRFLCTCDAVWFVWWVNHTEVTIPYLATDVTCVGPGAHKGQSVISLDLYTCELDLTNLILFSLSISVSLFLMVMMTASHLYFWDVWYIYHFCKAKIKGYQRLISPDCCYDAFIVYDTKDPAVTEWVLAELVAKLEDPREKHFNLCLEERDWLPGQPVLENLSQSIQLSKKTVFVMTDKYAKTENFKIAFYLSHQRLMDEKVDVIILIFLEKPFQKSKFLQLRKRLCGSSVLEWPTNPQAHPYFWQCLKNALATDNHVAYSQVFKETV

Sequence of human TLR8 (Q9NR97 27-1041): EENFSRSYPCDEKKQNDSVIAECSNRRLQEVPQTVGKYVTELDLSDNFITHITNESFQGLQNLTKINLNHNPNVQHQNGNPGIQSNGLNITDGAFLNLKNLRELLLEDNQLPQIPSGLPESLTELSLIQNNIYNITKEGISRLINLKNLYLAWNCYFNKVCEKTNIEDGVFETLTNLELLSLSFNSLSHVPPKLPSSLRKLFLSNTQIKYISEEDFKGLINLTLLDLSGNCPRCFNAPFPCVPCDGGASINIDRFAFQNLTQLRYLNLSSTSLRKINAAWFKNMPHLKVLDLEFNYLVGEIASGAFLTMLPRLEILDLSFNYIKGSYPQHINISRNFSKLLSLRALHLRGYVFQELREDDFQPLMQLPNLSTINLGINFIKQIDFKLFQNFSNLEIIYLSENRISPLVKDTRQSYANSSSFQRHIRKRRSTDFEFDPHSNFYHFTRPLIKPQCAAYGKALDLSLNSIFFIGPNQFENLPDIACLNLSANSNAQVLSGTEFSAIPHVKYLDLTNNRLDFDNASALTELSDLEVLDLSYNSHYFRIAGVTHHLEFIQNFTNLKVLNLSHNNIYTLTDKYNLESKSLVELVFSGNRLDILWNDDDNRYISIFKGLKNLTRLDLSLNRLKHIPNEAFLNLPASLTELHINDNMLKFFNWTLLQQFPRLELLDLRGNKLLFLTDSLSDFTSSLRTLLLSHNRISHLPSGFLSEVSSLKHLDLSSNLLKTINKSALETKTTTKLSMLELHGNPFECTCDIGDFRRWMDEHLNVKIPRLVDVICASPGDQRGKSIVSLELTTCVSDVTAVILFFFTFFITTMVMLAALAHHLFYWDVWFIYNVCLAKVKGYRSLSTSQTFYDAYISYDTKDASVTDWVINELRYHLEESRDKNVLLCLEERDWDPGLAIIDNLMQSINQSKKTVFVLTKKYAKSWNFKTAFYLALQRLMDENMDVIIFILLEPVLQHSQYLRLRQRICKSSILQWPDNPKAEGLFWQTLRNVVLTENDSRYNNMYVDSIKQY
Sequence of human TLR9 (Q9NR96 26-1032): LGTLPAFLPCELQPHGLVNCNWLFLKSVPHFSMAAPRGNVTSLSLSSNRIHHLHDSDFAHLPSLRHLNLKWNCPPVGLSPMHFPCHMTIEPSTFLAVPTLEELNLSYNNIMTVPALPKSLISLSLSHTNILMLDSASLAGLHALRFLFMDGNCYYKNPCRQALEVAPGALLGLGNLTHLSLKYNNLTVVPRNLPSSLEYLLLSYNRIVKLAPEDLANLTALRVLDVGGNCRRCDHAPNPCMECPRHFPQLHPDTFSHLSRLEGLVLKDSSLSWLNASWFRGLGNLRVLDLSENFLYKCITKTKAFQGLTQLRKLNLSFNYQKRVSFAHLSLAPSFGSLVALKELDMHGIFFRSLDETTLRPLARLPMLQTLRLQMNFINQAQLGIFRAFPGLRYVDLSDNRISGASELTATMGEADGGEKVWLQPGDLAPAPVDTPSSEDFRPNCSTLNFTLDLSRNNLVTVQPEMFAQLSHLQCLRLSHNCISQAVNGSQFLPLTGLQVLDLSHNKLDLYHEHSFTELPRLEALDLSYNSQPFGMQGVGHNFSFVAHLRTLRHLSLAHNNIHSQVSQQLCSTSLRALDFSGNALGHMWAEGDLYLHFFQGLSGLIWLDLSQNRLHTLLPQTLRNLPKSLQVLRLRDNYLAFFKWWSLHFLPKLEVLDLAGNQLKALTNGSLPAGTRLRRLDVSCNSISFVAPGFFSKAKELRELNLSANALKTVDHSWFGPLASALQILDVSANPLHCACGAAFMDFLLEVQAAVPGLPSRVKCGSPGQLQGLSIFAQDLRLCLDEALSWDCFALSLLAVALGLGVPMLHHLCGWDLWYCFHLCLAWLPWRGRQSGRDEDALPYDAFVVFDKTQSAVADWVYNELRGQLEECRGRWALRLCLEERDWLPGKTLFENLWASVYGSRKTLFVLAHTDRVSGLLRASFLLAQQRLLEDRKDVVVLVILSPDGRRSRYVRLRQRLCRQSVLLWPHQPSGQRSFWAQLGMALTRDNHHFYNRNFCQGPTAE

SMILES | pIC50 (human TLR8) | pIC50 (human TLR9) | pIC50 (human TLR7)
COc1cc(-c2[nH]c3ccc(C4CN(C5CCOCC5)CCO4)nc3c2C(C)C)cn2ncnc12 (stereo not drawn) [Example 659] | 7.62 | 5.07 | 7.92
Cc1cc(-c2[nH]c3ccc(C4CN(C)CCO4)nc3c2C(C)C)cn(C)c1=O (stereo not drawn) [Example 665] | 7.77 | < 4.30 | 7.47
COc1cc(-c2[nH]c3ccc(C4CNCCO4)nc3c2C(C)C)cn2ncnc12 (stereo not drawn) [Example 666] | 8.80 | 5.18 | 9.14
Cc1cc(-c2[nH]c3ccc(C4CN(C5COC5)CCO4)nc3c2C(C)C)cn(C)c1=O (stereo not drawn) [Example 667] | 6.15 | < 4.30 | 6.84
Cc1cc(-c2[nH]c3ccc(C4CNCCO4)nc3c2C(C)C)cn(C)c1=O (stereo not drawn) [Example 669] | 8.25 | 4.50 | 8.13
Cc1cc(-c2[nH]c3ccc(C4CN(CC#N)CCO4)nc3c2C(C)C)cn(C)c1=O (stereo not drawn) [Example 670] | 7.24 | < 4.30 | 7.25
COc1cc(-c2[nH]c3ccc(C4CNCCO4)nc3c2C(C)C)cn2ncnc12 (stereo not drawn) [Example 671, 2-(3-isopropyl-2-(8-methoxy-[1,2,4]triazolo[1,5-a]pyridin-6-yl)-1H-pyrrolo[3,2-b]pyridin-5-yl)morpholine] | 8.68 | 5.35 | 8.85
Cc1cc(-c2[nH]c3ccc(C4CNCCO4)nc3c2C(C)C)cn(C)c1=O (stereo not drawn) [Example 675] | 8.34 | 4.84 | 8.01
COc1cc(-c2[nH]c3ccc(C4CNCCO4)nc3c2C(C)C)cn2ncnc12 (stereo not drawn) [Example 676] | 8.60 | 5.24 | 9.00
Cc1cc(-c2[nH]c3ccc(C4CN(C(=O)CN(C)C)CCO4)nc3c2C(C)C)cn(C)c1=O (stereo not drawn) [Example 677] | 7.28 | < 4.30 | 7.77
Cc1cc(-c2[nH]c3ccc(C4CN(C(C)C)CCO4)nc3c2C(C)C)cn(C)c1=O (stereo not drawn) [Example 678] | 7.54 | < 4.30 | 7.44
Cc1cc(-c2[nH]c3ccc(C4CNCCO4)nc3c2C(C)C)cn(C)c1=O (stereo not drawn) [Example 679] | 8.24 | 4.69 | 7.80
Cc1cc(-c2[nH]c3ccc(CCN4CCCCC4)nc3c2C(C)C)cn2ncnc12 [Example 681] | 6.70 | 5.37 | 6.98
COc1cc(-c2[nH]c3ccc(CCN4CCCCC4)nc3c2C(C)C)cn2ncnc12 [Example 682] | 7.62 | 5.98 | 7.80
CC(C)c1c(-c2cn(C)c3ncccc23)[nH]c2ccc(CCC3CN(CC(=O)N(C)C)C3)nc12 [Example 683] | 7.89 | 6.49 | 7.92
CC(C)c1c(-c2cn(C)c3ncccc23)[nH]c2ccc(CCC3CN(CCS(C)(=O)=O)C3)nc12 [Example 684] | 7.89 | 6.44 | 7.85

SMILES | pIC50 (human TLR8) | pIC50 (human TLR9) | pIC50 (human TLR7)
COc1cc(-c2[nH]c3ccc(CCC4CN(CC(=O)N(C)C)C4)nc3c2C(C)C)cn2ncnc12 [Example 689] | 7.38 | 6.36 | 7.96
CC(C)c1c(-c2cn(C)c3ncccc23)[nH]c2ccc(CCC3CNC3)nc12 [Example 690] | 7.51 | 6.54 | 7.82
CC(C)c1c(-c2cn(C)c3ncccc23)[nH]c2ccc(CCC3CN(CC4(C)COC4)C3)nc12 [Example 691] | 8.04 | 6.50 | 7.96
COc1cc(-c2[nH]c3ccc(CCC4CN(CC(C)(C)O)C4)nc3c2C(C)C)cn2ncnc12 [Example 693] | 7.82 | 6.36 | 8.19
CC(C)c1c(-c2cn(C)c3ncccc23)[nH]c2ccc(CCC3CN(C4COC4)C3)nc12 [Example 694] | 5.55 | 4.84 | 5.64
COc1cc(-c2[nH]c3ccc(CCC4CNC4)nc3c2C(C)C)cn2ncnc12 [Example 697] | 6.95 | 6.04 | 7.70
COc1cc(-c2[nH]c3ccc(CCC4CN(CCS(C)(=O)=O)C4)nc3c2C(C)C)cn2ncnc12 [Example 698] | 7.55 | 6.00 | 7.92
COc1cc(-c2[nH]c3ccc(CCC4CN(C(=O)CN(C)C)C4)nc3c2C(C)C)cn2ncnc12 [Example 699] | 7.34 | 6.37 | 7.92
COc1cc(-c2[nH]c3ccc(CCC4CN(C5COC5)C4)nc3c2C(C)C)cn2ncnc12 [Example 700] | 7.37 | 5.63 | 7.59
CC(C)c1c(-c2cn(C)c3ncccc23)[nH]c2ccc(CCC3CN(C(=O)CN(C)C)C3)nc12 [Example 703] | 7.80 | 6.49 | 8.05
CC(C)c1c(-c2cn(C)c3ncccc23)[nH]c2ccc(CCC3CN(Cc4c[nH]nn4)C3)nc12 [Example 704] | 7.89 | 6.78 | 7.96
Cc1c(-c2[nH]c3ccc(CCC4CN(Cc5c[nH]nn5)C4)nc3c2C(C)C)cn2ncnc2c1C [Example 705] | 7.82 | 6.18 | 7.74
COc1cc(-c2[nH]c3ccc(CCC4CN(CC5(C)COC5)C4)nc3c2C(C)C)cn2ncnc12 [Example 706] | 7.74 | 5.99 | 8.07
COc1cc(-c2[nH]c3ccc(C4CCC(NC5CCOCC5)C4)nc3c2C(C)C)cn2ncnc12 (stereo not drawn) [Example 707] | 8.28 | 5.85 | 8.82
COc1cc(-c2[nH]c3ccc(C4CCC(N(CC(N)=O)CC(N)=O)C4)nc3c2C(C)C)cn2ncnc12 (stereo not drawn) [Example 708] | 6.55 | < 4.30 | 7.92
COc1cc(-c2[nH]c3ccc(C4CCC(NCCS(C)(=O)=O)C4)nc3c2C(C)C)cn2ncnc12 (stereo not drawn) [Example 709] | < 5.51 | < 4.30 | 5.63

The next lines start with the values.

pIC50 (human TLR8) | pIC50 (human TLR9) | pIC50 (human TLR7) | SMILES
8.09 | 4.87 | 8.42 | Cc1c(-c2[nH]c3ccc(C4CN(C(C)C)CCO4)nc3c2C(C)C)cn2ncnc2c1C (stereo not drawn) [Example 658]
7.82 | 4.84 | 8.48 | COc1cc(-c2[nH]c3ccc(C4CN(C(C)C)CCO4)nc3c2C(C)C)cn2ncnc12 (stereo not drawn) [Example 660, 4-isopropyl-2-(3-isopropyl-2-(8-methoxy-[1,2,4]triazolo[1,5-a]pyridin-6-yl)-1H-pyrrolo[3,2-b]pyridin-5-yl)morpholine]
8.26 | 4.86 | 8.64 | COc1cc(-c2[nH]c3ccc(C4CN(C)CCO4)nc3c2C(C)C)cn2ncnc12 (stereo not drawn) [Example 661]
9.00 | 5.04 | 8.74 | Cc1c(-c2[nH]c3ccc(C4CNCCO4)nc3c2C(C)C)cn2ncnc2c1C (stereo not drawn) [Example 662]
8.00 | 4.67 | 8.46 | Cc1c(-c2[nH]c3ccc(C4CN(C(=O)CN(C)C)CCO4)nc3c2C(C)C)cn2ncnc2c1C (stereo not drawn) [Example 663]
7.85 | 4.41 | 7.66 | Cc1c(-c2[nH]c3ccc(C4CN(C5CCOCC5)CCO4)nc3c2C(C)C)cn2ncnc2c1C (stereo not drawn) [Example 664]
7.66 | 4.76 | 8.77 | COc1cc(-c2[nH]c3ccc(C4CN(C(=O)CN(C)C)CCO4)nc3c2C(C)C)cn2ncnc12 (stereo not drawn) [Example 668]
7.05 | 5.20 | 8.33 | COc1cc(-c2[nH]c3ccc(C4CN(C(=O)CCN(C)C)CCO4)nc3c2C(C)C)cn2ncnc12 (stereo not drawn) [Example 672]
8.16 | 4.84 | 8.28 | Cc1c(-c2[nH]c3ccc(C4CN(C)CCO4)nc3c2C(C)C)cn2ncnc2c1C (stereo not drawn) [Example 673]
7.32 | < 4.30 | 7.49 | Cc1c(-c2[nH]c3ccc(C4CN(CCS(C)(=O)=O)CCO4)nc3c2C(C)C)cn2ncnc2c1C (stereo not drawn) [Example 674]
8.28 | 5.98 | 7.92 | Cc1c(-c2[nH]c3ccc(C4CNCCN4)nc3c2C(C)C)cn2ncnc2c1C (stereo not drawn) [Example 680, 6-(3-isopropyl-5-(piperazin-2-yl)-1H-pyrrolo[3,2-b]pyridin-2-yl)-7,8-dimethyl-[1,2,4]triazolo[1,5-a]pyridine]
7.41 | 5.80 | 7.49 | Cc1c(-c2[nH]c3ccc(CCC4CN(C(=O)CN(C)C)C4)nc3c2C(C)C)cn2ncnc2c1C [Example 685]
< 5.51 | < 4.30 | < 5.51 | Cc1c(-c2[nH]c3ccc(CCC4CN(C5COC5)C4)nc3c2C(C)C)cn2ncnc2c1C [Example 686]
7.80 | 5.24 | 7.41 | Cc1c(-c2[nH]c3ccc(CCC4CN(C5COC5)C4)nc3c2C(C)C)cn2ncnc2c1C [Example 687]
7.24 | 5.82 | 7.37 | Cc1c(-c2[nH]c3ccc(CCC4CNC4)nc3c2C(C)C)cn2ncnc2c1C [Example 692]
7.70 | 5.40 | 7.38 | Cc1c(-c2[nH]c3ccc(CCC4CN(CCS(C)(=O)=O)C4)nc3c2C(C)C)cn2ncnc2c1C [Example 695]
7.44 | 5.88 | 7.12 | Cc1c(-c2[nH]c3ccc(CCC4CN(CC(=O)N(C)C)C4)nc3c2C(C)C)cn2ncnc2c1C [Example 696]
7.82 | 5.76 | 7.31 | Cc1c(-c2[nH]c3ccc(CCC4CN(CC(C)(C)O)C4)nc3c2C(C)C)cn2ncnc2c1C [Example 701]
7.85 | 5.65 | 7.39 | Cc1c(-c2[nH]c3ccc(CCC4CN(CC5(C)COC5)C4)nc3c2C(C)C)cn2ncnc2c1C [Example 702]
